Laboratory results from US20220160812A1, “A PHARMACEUTICALLY ACTIVE SUBSTANCE” (Cytopharma GmbH, priority 2019, published 2022).
Entries after “also recorded” stand apart in the source; their conditions may differ. Non-standard residues stand in square brackets, D forms with d. Residues, ends and D or L forms follow the SMILES beside them.

How the values were obtained:
[1] = test system: human peripheral blood mononuclear cells (Lymphocyte, PBMC); experiment: cell vitality FACS analysis (region R-1), healthy lymphocytes (PBMC); format: cell-based; details: Protocol A, 50, 100, 200 μM, about 24 hours per Examples (FIG. 11 legend: about 2 hours)
Method: Human lymphocytes are obtained as peripheral blood mononuclear cells (“PBMC”) from whole blood. For this purpose, 15 ml of heparinized whole blood (heparin tube, Sarstedt) were layered on 15 ml Biocoll in LeucoSep tubes and obtained by centrifugation (10 min at 120 g) as the top layer (“lymphocytes”) and so separated from other cells. For induction with peptides, 1×10^6 lymphocytes are seeded into each well of the 48-well plates.
After addition of the peptides diluted in culture medium to the cells (MEC-1 or lymphocytes) in the respective cavity, the cells are cultured for 2 to 4 hours at 37 degrees Celsius and 5% CO2. The cell suspension is centrifuged in centrifuge tubes at 120 g, the cells are suspended in 500 μl serum-free culture medium, then 1.5 ml of cold 80% ethanol (ethanol/PBS-80/20, v/v; stored at −20 degrees Celsius) is added, the FACS tubes sealed and stored at −20 degrees Celsius for a maximum of 18 h. The cells are centrifuged for 5 min at 120 g and suspended in 2 ml PBS, then incubated for 30 min at 37 degrees Celsius. After renewed centrifugation, the cells are suspended in 0.5 ml DAPI solution and incubated for 15 min at 20 degrees Celsius in the dark. Thereafter, the cells are stored dark for a maximum of four hours in an ice bath, then the FACS analysis.
(§1) To transfer adherent cells (A375 and BxPC-3 cells) after culture, cells are washed twice with PBS. To detach the cells, the enzyme biotase is used according to the manufacturer's instructions. For this purpose, after washing with PBS, the cells are mixed with biotase (5 ml of biotase solution per 75 cm^2 surface of the cell culture bottles) and incubated for 5 min at 37 degrees Celsius, and the biotase is separated by centrifugation. Cells cultivated in suspension (MEC-1 and lymphocytes) were transferred by dilution. The cells are suspended in culture medium and counted, each time 1.5×10^5 cells/cm^2 are seeded in 48-well plates and cultured for between 1.5 and 24 hours at 37 degrees Celsius, 5% CO2. Peptides are pre-diluted from stock solution with culture medium and 200 μl of peptide solution added so that final concentrations of 30 to 500 μM peptide are present in at most 1% (v/v) DMSO. As control solutions, culture medium without peptide (DMSO-containing) in culture medium or etoposide solution is added. After incubating the cells for several hours, the cell supernatant is transferred to a FACS tube for each batch and, after washing the cells with PBS, the wash solution is added. Then the cells are incubated with 200 μl of biotase solution for 10 min, 37° C., the cells with the biotase are also transferred to the FACS tube and the cells are collected by centrifugation for 5 min. The cell pellet is suspended in 500 μl of serum-free culture medium, then 1.5 ml of cold 80% ethanol (ethanol/PBS-80/20, v/v, stored at −20° C.) is added, the FACS tubes sealed and stored at −20 degrees Celsius for 15 to 18 h. Thereafter, the cells are centrifuged for 5 minutes at 120 g, suspended after removal of the supernatant in 2 ml PBS and incubated at 37 degrees Celsius for 30 minutes. After re-centrifugation, the cells are suspended in 0.5 ml DAPI solution and incubated for 15 min at 20 degrees Celsius in the dark. Thereafter, the cells are stored dark for a maximum of four hours in an ice bath, followed by the FACS analysis.
Changes of the cell form during cell death by apoptosis are documented in the literature (Lizard et al. 1995; Taga et al. 2000; Vermes et al., 2000). The protocols for cell cultivation, treatment and preparation of the cells before flow cytometry is detailed in separate examples. Cell suspensions of cell lines A375, BxPC-3, MEC-1 or of primary lymphocytes (see separate example of lymphocyte preparation) are analyzed by flow cytometry. The data are further analyzed by using the program “Flowing Software 2”. The data of light scattering are drawn in a two-dimensional FSC/SSC plot. […]

[2] = test system: A375 melanoma cells; experiment: cell vitality FACS analysis (region R-1, FSC/SSC), A375 melanoma cells; format: cell-based, human; details: A375, Protocol A, about 24 hours, FIG. 7
Method: as §1
For suspension cells (MEC-1 and lymphocytes/PBMC) and for adherent cells analyzed according to Protocol A, FACS analysis to determine subG1 cell cycle and vital cell fractions was done on a Becton Dickinson LSR Fortessa flow cytometer. The analysis by FACS including subG1 and vital cell analysis according to protocol B was performed with a Cytomics FC 500 MPL flow cytometer from Beckman Coulter.
Changes of the cell form during cell death by apoptosis are documented in the literature (Lizard et al. 1995; Taga et al. 2000; Vermes et al., 2000). The protocols for cell cultivation, treatment and preparation of the cells before flow cytometry is detailed in separate examples. Cell suspensions of cell lines A375, BxPC-3, MEC-1 or of primary lymphocytes (see separate example of lymphocyte preparation) are analyzed by flow cytometry. The data are further analyzed by using the program “Flowing Software 2”. The data of light scattering are drawn in a two-dimensional FSC/SSC plot. Since the position in the FSC/SSC plot of apoptotic cells changes relative to non-apoptotic cells (Vermes et al., 2000), a region (R-1) is drawn representing mainly non-apoptotic cells and excluding cells with both low FSC and low SSC values and excluding cells with high values of FSC and/or SSC (FIG. 1). The regions are individually selected for each cell type (A375, BxPC-3, MEC-1 and primary lymphocytes). The percentage of untreated non-apoptotic cells in the region R-1 relative to total cells is set to 100%, representing 100% vital cells. The fraction (%) of cells in R-1 relative to the total number of cells in case of cell treatment by certain peptides or by cytotoxic drugs results in cell vitality, below 100%, thereby indicating a loss of cell vitality by the treatment. […]

Row | Molecule | tolerance by healthy Lymphocyte (PBMC) cells (cell vitality) [1] | other results
1 | CSCC[C@@H](NC(=O)[C@@H](Cc1c[nH]c2ccccc12)NC(=O)[C@@H](CCCCN)NC(=O)[C@H](N)CCCCN)C(=O)N[C@@H](C(=O)N[C@@H](C(=O)N[C@H](Cc1ccc(O)cc1)C(=O)N[C@H](Cc1ccccc1)C(=O)N[C@H](CCCNC(=N)N)C(=O)N[C@H](CCCCN)C(=O)N[C@H](CCC(=O)O)C(=O)N[C@H](C)C(=O)N[C@H](CCCNC(=N)N)C(=O)O)C(C)C)C(C)C [SEQID No 32, k-k-w-m-v-v-y-f-r-k-e-a-r] (H-[dK][dK][dW][dM][dV][dV][dY][dF][dR][dK][dE][dA][dR]-OH; N-terminus and C-terminus assumed) | not remarkably damaged | 
2 | CSCC[C@@H](NC(=O)[C@@H](Cc1c[nH]c2ccccc12)NC(=O)[C@@H](CCCCN)NC(=O)[C@H](N)CCCCN)C(=O)N[C@@H](C(=O)N[C@@H](C(=O)N[C@H](Cc1ccc(O)cc1)C(=O)N[C@H](Cc1ccccc1)C(=O)N[C@H](CCCNC(=N)N)C(=O)N[C@H](CCCCN)C(=O)O)C(C)C)C(C)C [SEQID No 27, k-k-w-m-v-v-y-f-r-k] (H-[dK][dK][dW][dM][dV][dV][dY][dF][dR][dK]-OH; N-terminus and C-terminus assumed) | not remarkably damaged; also recorded: very good tolerated by the healthy cells (low toxic effect) | 
3 | CSCC[C@@H](NC(=O)[C@@H](Cc1c[nH]c2ccccc12)NC(=O)[C@@H](CCCCN)NC(=O)[C@@H](CCCCN)NC(=O)[C@H](NC(=O)[C@@H](CO)NC(=O)[C@H](N)CCCNC(=N)N)[C@H](C)O)C(=O)N[C@@H](C(=O)N[C@@H](C(=O)N[C@H](Cc1ccc(O)cc1)C(=O)N[C@H](Cc1ccccc1)C(=O)N[C@H](CCCNC(=N)N)C(=O)N[C@H](CCCCN)C(=O)O)C(C)C)C(C)C [SEQID No 33, r-s-t-k-k-w-m-v-v-y-f-r-k] (H-[dR][dS][dT][dK][dK][dW][dM][dV][dV][dY][dF][dR][dK]-OH; N-terminus and C-terminus assumed) | not remarkably damaged; also recorded: well tolerated | 
4 | CSCC[C@@H](NC(=O)[C@@H](Cc1c[nH]c2ccccc12)NC(=O)[C@@H](CCCCN)NC(=O)[C@H](N)CCCCN)C(=O)N[C@@H](C(=O)N[C@@H](C(=O)N[C@H](Cc1ccc(O)cc1)C(=O)N[C@H](Cc1ccccc1)C(=O)N[C@H](CCCNC(=N)N)C(=O)N[C@H](CCCCN)C(=O)N[C@H](CO)C(=O)N[C@H](CO)C(=O)N[C@H](CCCNC(=N)N)C(=O)O)C(C)C)C(C)C [SEQID No 30, k-k-w-m-v-v-y-f-r-k-s-s-r] (H-[dK][dK][dW][dM][dV][dV][dY][dF][dR][dK][dS][dS][dR]-OH; N-terminus and C-terminus assumed) | well tolerated | tolerance by healthy Lymphocyte (PBMC) cells (cell vitality) ([1]; listed as SEQID NO 30): not remarkably damaged
5 | d-k-w-m-v-v-y-f-r-d [SEQID No 39] |  | decrease of cell vitality, comparison in words ([2]; 100 μM): higher apoptosis rate at a concentration of 100 μM as peptide SEQID NO 27; decrease of cell vitality, comparison in words ([2]; any concentration (100, 200, 500 μM)): significantly greater decrease than the peptide of the prior art (Peptide SEQ C1)
6 | CSCC[C@@H](NC(=O)[C@@H](Cc1c[nH]c2ccccc12)NC(=O)[C@@H](CCCCN)NC(=O)[C@@H](CCCCN)NC(=O)[C@@H](CO)NC(=O)[C@@H](CCCNC(=N)N)NC(=O)[C@H](N)CCC(=O)O)C(=O)N[C@@H](C(=O)N[C@@H](C(=O)N[C@H](Cc1ccc(O)cc1)C(=O)N[C@H](Cc1ccccc1)C(=O)N[C@H](CCCNC(=N)N)C(=O)N[C@H](CCCCN)C(=O)O)C(C)C)C(C)C [SEQID No 31, e-r-s-k-k-w-m-v-v-y-f-r-k] (H-[dE][dR][dS][dK][dK][dW][dM][dV][dV][dY][dF][dR][dK]-OH; N-terminus and C-terminus assumed) | not remarkably damaged | 
7 | CSCC[C@@H](NC(=O)[C@@H](Cc1c[nH]c2ccccc12)NC(=O)[C@H](N)CCCCN)C(=O)N[C@@H](C(=O)N[C@@H](C(=O)N[C@H](Cc1ccc(O)cc1)C(=O)N[C@H](Cc1ccccc1)C(=O)N[C@H](CCCNC(=N)N)C(=O)N[C@H](CCCCN)C(=O)O)C(C)C)C(C)C [SEQID No 26, k-w-m-v-v-y-f-r-k] (H-[dK][dW][dM][dV][dV][dY][dF][dR][dK]-OH; N-terminus and C-terminus assumed) | not so well tolerated by the healthy cells | 
8 | CSCC[C@@H](NC(=O)[C@@H](Cc1c[nH]c2ccccc12)NC(=O)[C@@H](CCCCN)NC(=O)[C@H](N)CCCCN)C(=O)N[C@@H](C(=O)N[C@@H](C(=O)N[C@H](Cc1ccc(O)cc1)C(=O)N[C@H](Cc1ccccc1)C(=O)N[C@H](CCCNC(=N)N)C(=O)O)C(C)C)C(C)C [SEQID No 25, k-k-w-m-v-v-y-f-r] (H-[dK][dK][dW][dM][dV][dV][dY][dF][dR]-OH; N-terminus and C-terminus assumed) | not so well tolerated by the healthy cells | 
